These are literature values, as cited in patent US10603302B2, “Water soluble flavonoids” (priority 2017, dated 2020).

For the data set the following is noted: background statement.

SMILES strings stand for the structures.

In the case of `O=C1c2c(O)cc(O)cc2OC(c2ccc(O)c(O)c2)C1O` (stereo not shown) [Taxifolin, 5,7,31,41-tetrahydroxyflavanol,dihydroquercetin], the solubility in water entry was “slightly soluble in water”.
